Data taken from patent publication US20090075948A1, “COMPOSITIONS AND METHODS FOR REGULATING CELLULAR PROTECTION” (California Institute of Technology, priority 2007, published 2009).

How the values were obtained:
Assay type in all cases: cell-based, Drosophila
HSF = HSF DNA binding activity, gel mobility shift assay (EMSA) with whole cell extracts and labeled HSE; conditions: for optimal concentration for induction of HSF DNA binding: treated 60 minutes, no heat shock; for stimulation of HSF DNA binding: without cellular stress
Experimental: FIG. 14. Induction of HSF DNA binding and hsp70 protein synthesis by ibuprofen and salicylic acid. The concentrations of ibuprofen and salicylic acid are shown as mM. Both DNA binding and Hsp70 protein synthesis follow the same optimal concentrations. The cells were treated for 60 minutes with the indicated drug and whole cell extracts prepared for analysis.
The effect of the KDs on DNA binding was first examined using the gel mobility shift assay. Briefly cells were treated with RNAi or transfected with the indicated DNA constructs and harvested four days later. Whole cell extracts were prepared and DNA binding carried out with a labeled heat shock element (HSE) double stranded oligonucleotide. Lanes 1 and 2 represent control cells, non-shocked and heat shocked, respectively. […] Lanes 3 and 4 contain extract derived from the Hsc3p KD cells.

Hsp70 [1] = test: Induction of Hsp70 protein synthesis in cultured cells; conditions: for optimal concentration for induction of Hsp70 protein synthesis: treated 60 minutes, no heat shock; for stimulation of Hsp70 protein synthesis: without cellular stress
Experimental: FIG. 14. Induction of HSF DNA binding and hsp70 protein synthesis by ibuprofen and salicylic acid. The concentrations of ibuprofen and salicylic acid are shown as mM. Both DNA binding and Hsp70 protein synthesis follow the same optimal concentrations. The cells were treated for 60 minutes with the indicated drug and whole cell extracts prepared for analysis. […] The goal here is to activate HSF to produce adequate levels of Hsp70 that can provide neuroprotective functions to the human brain. To begin these studies, two common non-steroidal anti-inflammatory drugs (NSAIDs), ibuprofen and salicylic acid, were tested. These molecules have been previously shown to stimulate HSF DNA binding in mammalian and Drosophila cells. The findings presented here differ from those previously published. As reported here, both salicylic acid and ibuprofen can stimulate HSF DNA binding, Hsp70 transcription and Hsp70 protein synthesis. […] It is clear that both DNA binding and Hsp70 protein synthesis have identical optimums.

Hsp70 [2] = test: Hsp70 transcription, primer-extension analysis of isolated RNA; conditions: for stimulation of Hsp70 transcription: without cellular stress
Experimental: FIG. 15. Time course for Hsp70 transcription induction by 3 mM salicylic acid. Cells were treated with 3 mM salicylic acid and RNA was isolated at the indicated times.
Control cells (lanes 1 and 2) show activation of Hsp70 transcription as a result of a ten-minute heat shock. […] Lanes 3 and 4 contain RNA from KD cells with RNAi against Hsc4p. […] When Hsc4p levels are reduced, HSF is able to bind DNA and activate transcription without heat shock.

[3] = Drosophila cultured cells, 60 minutes

Compound: CC(C)Cc1ccc(C(C)C(=O)O)cc1 (stereo not shown) [ibuprofen]
- optimal concentration for induction of HSF DNA binding (HSF; Drosophila cultured cells): 3 to 10 mM
- stimulation of HSF DNA binding (HSF): can stimulate
- optimal concentration for induction of Hsp70 protein synthesis (Hsp70 [1]; Drosophila cultured cells): 3 to 10 mM
- stimulation of Hsp70 protein synthesis (Hsp70 [1]): can stimulate
- stimulation of Hsp70 transcription (Hsp70 [2]): can stimulate

Compound: O=C(O)c1ccccc1O [salicylic acid]
- low concentration that still functions for HSF DNA binding (HSF; [3]): 1 mM
- optimal concentration for induction of HSF DNA binding (HSF; Drosophila cultured cells): quite broad
- stimulation of HSF DNA binding (HSF): can stimulate
- low concentration that still functions for Hsp70 protein synthesis (Hsp70 [1]; [3]): 1 mM
- optimal concentration for induction of Hsp70 protein synthesis (Hsp70 [1]; Drosophila cultured cells): quite broad
- stimulation of Hsp70 protein synthesis (Hsp70 [1]): can stimulate
- time course of Hsp70 transcription induction (Hsp70 [2]; 3 mM salicylic acid): induced rapidly
- stimulation of Hsp70 transcription (Hsp70 [2]): can stimulate
